PubChem BioAssay (NCI)
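Step 1: Grow cells in 96-well plates. Step 2: Expose to compound for 48 hours at 5 concentrations. Step 3: Interpolate endpoints linearly; if unreached, use highest concentration. The concentration for full growth arrest is given as TGI.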

Experiments:
Experiment in all cases: NCI-60 cell line screen, 48 h
[1] = test system: A549 NSCLC
[2] = test system: ACHN renal
[3] = test system: M14 melanoma
[4] = test system: MALME-3M melanoma
[5] = test system: MCF7 breast
[6] = test system: NCI-H460 lung
[7] = test system: OVCAR-8 ovarian
[8] = test system: SF-268 CNS
[9] = test system: SN12C renal
[10] = test system: SNB-75 CNS

## Cc1ccc(S(=O)(=O)N/C(=C\C=C\c2ccccc2)C(=O)C(C)(C)C)cc1
[1]
  TGI: > 100 µM
[2]
  TGI: > 100 µM
[3]
  TGI: > 100 µM
[4]
  TGI: > 100 µM
[5]
  TGI: > 100 µM
[6]
  TGI: > 100 µM
[7]
  TGI: > 100 µM
[8]
  TGI: > 100 µM
[9]
  TGI: > 100 µM
[10]
  TGI: > 100 µM

## O=C(NCCN(CCNC(=O)c1cccc(=O)n1O)CCN(CCNC(=O)c1cccc(=O)n1O)CCNC(=O)c1cccc(=O)n1O)c1cccc(=O)n1O
[1]
  TGI: > 100 µM
[2]
  TGI: > 100 µM
[3]
  TGI: > 100 µM
[4]
  TGI: > 100 µM
[5]
  TGI: > 100 µM
[6]
  TGI: > 100 µM
[7]
  TGI: > 100 µM
[8]
  TGI: > 100 µM
[9]
  TGI: > 100 µM
[10]
  TGI: > 100 µM

## CN(C)c1ccc(/C=N/Nc2nc3ccccc3c(=O)n2-c2ccccc2)cc1
[1]
  TGI: > 100 µM
[2]
  TGI: > 100 µM
[3]
  TGI: > 100 µM
[4]
  TGI: > 100 µM
[5]
  TGI: > 100 µM
[6]
  TGI: > 100 µM
[7]
  TGI: > 100 µM
[8]
  TGI: > 100 µM
[9]
  TGI: > 100 µM
[10]
  TGI: 57.5 µM

## CC(C)(C)OC(=O)n1cc(C2CNC(=O)C23CCC(=O)N3Cc2ccccc2)c2ccccc21 (stereo not given)
[1]
  TGI: 40.4 µM
[3]
  TGI: 67.4 µM
[4]
  TGI: 42.8 µM
[5]
  TGI: 80.3 µM
[6]
  TGI: 47.6 µM
[8]
  TGI: > 100 µM
[9]
  TGI: 32.4 µM
[10]
  TGI: 38.2 µM

## S=C1c2ccccc2NC(=NC2CCCC2)C2CSCN12 (stereo not given)
[1]
  TGI: > 100 µM
[2]
  TGI: > 100 µM
[3]
  TGI: > 100 µM
[4]
  TGI: > 100 µM
[5]
  TGI: > 100 µM
[6]
  TGI: > 100 µM
[7]
  TGI: > 100 µM
[8]
  TGI: > 100 µM
[9]
  TGI: > 100 µM

## COc1ccc(N2C=Nn3c(nc4sc(C)c(C)c4c3=O)C2)cc1
[1]
  TGI: > 100 µM
[2]
  TGI: > 100 µM
[3]
  TGI: > 100 µM
[4]
  TGI: > 100 µM
[5]
  TGI: > 100 µM
[6]
  TGI: > 100 µM
[7]
  TGI: > 100 µM
[8]
  TGI: > 100 µM
[9]
  TGI: > 100 µM
[10]
  TGI: > 100 µM

## CSc1c(C(=O)Nc2ccccc2)c(N)nn1-c1ccccc1
[1]
  TGI: > 100 µM
[3]
  TGI: > 100 µM
[4]
  TGI: > 100 µM
[5]
  TGI: > 100 µM
[6]
  TGI: > 100 µM
[7]
  TGI: > 100 µM
[8]
  TGI: > 100 µM
[9]
  TGI: > 100 µM
[10]
  TGI: > 100 µM

## CSc1nc(NC2CCCC2)c2cc[nH]c2n1
[1]
  TGI: > 100 µM
[2]
  TGI: > 100 µM
[3]
  TGI: > 100 µM
[4]
  TGI: > 100 µM
[5]
  TGI: > 100 µM
[6]
  TGI: > 100 µM
[7]
  TGI: > 100 µM
[8]
  TGI: > 100 µM
[9]
  TGI: > 100 µM

## Cc1ccc(C(=O)OC[C@H]2CC[C@@H](n3cc(N(C)C4CCCCC4)c(=O)[nH]c3=O)O2)cc1
[1]
  TGI: > 100 µM
[2]
  TGI: 79.3 µM
[3]
  TGI: 32.6 µM
[4]
  TGI: 56.7 µM
[5]
  TGI: 47.2 µM
[6]
  TGI: > 100 µM
[7]
  TGI: > 100 µM
[8]
  TGI: 86.5 µM
[9]
  TGI: 39.5 µM

## CCC(C)[C@H](NC(=O)N[C@H](C)c1ccccc1)C(=O)OC (stereo not given in full)
[1]
  TGI: > 100 µM
[2]
  TGI: > 100 µM
[3]
  TGI: > 100 µM
[5]
  TGI: > 100 µM
[6]
  TGI: > 100 µM
[7]
  TGI: > 100 µM
[9]
  TGI: > 100 µM
[10]
  TGI: > 100 µM

## Cc1cc2c(cc1Cl)Sc1nnc(Nc3ccccc3)n1S2(=O)=O
[1]
  TGI: 32.7 µM
[2]
  TGI: 30.3 µM
[3]
  TGI: 60.1 µM
[5]
  TGI: 32.4 µM
[6]
  TGI: 33.2 µM
[7]
  TGI: 20.8 µM
[8]
  TGI: 11 µM
[10]
  TGI: 23.7 µM
